Measurements: patent US20210122763A1, “OGA INHIBITOR COMPOUNDS” (Janssen Pharmaceutica NV, priority 2018, published 2021)

Legend:
OGA = biological target: T1, OGA (Homo sapiens, UniProt O60502); experiment: OGA cellular assay (ICC detection of O-GlcNAcylated proteins in HEK293 cells inducible for P301L mutant human Tau); assay type: cell-based; details: 6 hours incubation; for Emax: HEK293, HEK293 cells inducible for P301L mutant human Tau, maximum = Thiamet G 200 uM; for EC50: HEK293 cells inducible for P301L mutant human Tau, read-out: Cellular hOGA, pEC50 (converted)
T1 construct: HEK293 cells inducible for P301L mutant human Tau (isoform 2N4R) were established at Janssen; endogenous in cells; host or cells: HEK293 cells inducible for P301L mutant human Tau (2N4R)
T1 sequence (O60502 1-916): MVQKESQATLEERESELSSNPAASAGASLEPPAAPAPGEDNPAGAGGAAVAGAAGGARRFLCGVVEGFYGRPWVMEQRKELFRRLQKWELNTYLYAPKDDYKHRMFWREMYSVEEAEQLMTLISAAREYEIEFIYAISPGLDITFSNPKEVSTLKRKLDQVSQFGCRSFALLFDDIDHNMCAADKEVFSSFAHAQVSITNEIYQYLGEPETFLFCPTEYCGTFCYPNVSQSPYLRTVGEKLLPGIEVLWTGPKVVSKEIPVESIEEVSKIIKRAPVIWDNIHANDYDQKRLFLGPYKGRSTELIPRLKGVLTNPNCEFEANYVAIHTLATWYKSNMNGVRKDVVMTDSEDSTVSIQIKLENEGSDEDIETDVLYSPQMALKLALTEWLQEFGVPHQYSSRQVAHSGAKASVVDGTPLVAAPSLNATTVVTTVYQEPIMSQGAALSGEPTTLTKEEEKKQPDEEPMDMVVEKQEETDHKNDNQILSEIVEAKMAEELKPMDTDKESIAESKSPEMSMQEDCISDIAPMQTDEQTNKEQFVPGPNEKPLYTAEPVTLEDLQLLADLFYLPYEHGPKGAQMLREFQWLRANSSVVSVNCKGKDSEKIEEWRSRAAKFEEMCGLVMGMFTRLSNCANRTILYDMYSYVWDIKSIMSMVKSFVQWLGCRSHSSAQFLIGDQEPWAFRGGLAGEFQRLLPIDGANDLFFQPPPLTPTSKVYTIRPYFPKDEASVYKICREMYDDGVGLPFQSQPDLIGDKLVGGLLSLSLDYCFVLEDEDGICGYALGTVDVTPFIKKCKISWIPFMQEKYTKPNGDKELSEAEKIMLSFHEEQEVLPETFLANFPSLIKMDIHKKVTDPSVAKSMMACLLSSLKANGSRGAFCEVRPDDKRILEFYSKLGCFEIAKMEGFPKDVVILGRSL
In short: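 HEK293 cells with inducible P301L 2N4R Tau, seeded in low-glucose medium, were exposed to compounds for 6 hours (0.2% DMSO), then PFA-fixed and stained with CTD110.6. Imaging intensity at 488 nm measured O-GlcNAcylation, with Hoechst nuclei counts for toxicity. IC50s came from non-linear regression, with Thiamet G at 200 uM as maximum inhibition.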

| Emax (OGA) | EC50 (OGA) | melting point | SMILES |
| --- | --- | --- | --- |
| 86% | 31.6 nM | – | Cc1cc(OC2CCN([C@@H](C)c3nc4nc(C)sc4cc3F)CC2)cc(C)n1 (single isomer, unassigned) [Compound 83] |
| 81% | 10 nM | – | Cc1cc(OC2CCN([C@H](C)c3nc4c(cc3F)CCO4)CC2)cc(C)n1 (single isomer, unassigned) [Compound 144] |
| 82% | 50.1 nM | – | Cc1cc(OC2CCN([C@H](C)c3nc4c(cc3F)OCCO4)CC2)cc(C)n1 (single isomer, unassigned) [Compound 148] |
| 92% | 39.8 nM | 127.82 °C | Cc1ncc(OC2CCN(C(C)c3nc4c(cc3F)CCO4)CC2)cn1 (stereo not drawn) [Compound 95] |
